Test results as given in the OligoGym collection.
Oligonucleotides are written 5' to 3', each unit as a sugar letter and its base; * is a phosphorothioate linkage, no mark a phosphodiester; rarer units and linkages stand in square brackets, end groups in braces. Plain capitals give the bases only. d = 2'-deoxy (DNA); r = 2'-OH (RNA)

The substances below were run against UFC1 (assay: reporter assay of Huesken 2005). Details: siRNA.
Further: test concentration or dose not given here.

Compared with “sense rArCrUrArGrCrUrCrArUrCrUrCrArUrGrGrCrUdTdT / antisense rArGrCrCrArUrGrArGrArUrGrArGrCrUrArGrUdCdC”, “sense rArCrUrGrArArGrGrArGrGrArArUrArUrCrArGdTdT / antisense rCrUrGrArUrArUrUrCrCrUrCrCrUrUrCrArGrUdCdG” is higher in normalised inhibition (eCFP-eYFP dual reporter): 53.8% for the first, 75.2% for the second.

First: sense rArGrCrGrArCrUrGrArArGrGrArGrGrArArUrAdTdT / antisense rUrArUrUrCrCrUrCrCrUrUrCrArGrUrCrGrCrUdGdC
Second: sense rArGrGrArArGrGrArArCrUrCrGrGrUrGrGrUrUdTdT / antisense rArArCrCrArCrCrGrArGrUrUrCrCrUrUrCrCrUdTdG
The normalised inhibition (eCFP-eYFP dual reporter) of the first is higher: 93.1% for the first, 61.8% for the second.

First: sense rArGrGrGrCrGrUrCrArUrCrCrArArCrArCrArAdTdT / antisense rUrUrGrUrGrUrUrGrGrArUrGrArCrGrCrCrCrUdTdC
Second: sense rArGrUrCrCrArArCrArArGrGrArArGrGrArArCdTdT / antisense rGrUrUrCrCrUrUrCrCrUrUrGrUrUrGrGrArCrUdCdC
The normalised inhibition (eCFP-eYFP dual reporter) of the first is higher: 107% for the first, 83.5% for the second.

First: sense rArGrUrCrCrCrUrUrArUrCrCrGrGrUrArUrGrUdTdT / antisense rArCrArUrArCrCrGrGrArUrArArGrGrGrArCrUdGdA
Second: sense rArGrUrUrGrUrGrGrGrUrGrCrArGrCrGrArCrUdTdT / antisense rArGrUrCrGrCrUrGrCrArCrCrCrArCrArArCrUdCdA
The normalised inhibition (eCFP-eYFP dual reporter) of the first is lower: 74.6% for the first, 80.4% for the second.

Compared with “sense rArGrUrUrUrGrArCrArUrCrGrArGrUrUrUrGrAdTdT / antisense rUrCrArArArCrUrCrGrArUrGrUrCrArArArCrUdCdA”, “sense rArUrArUrCrCrUrArCrUrArCrUrGrCrCrCrCrAdTdT / antisense rUrGrGrGrGrCrArGrUrArGrUrArGrGrArUrArUdGdT” is lower in normalised inhibition (eCFP-eYFP dual reporter): 122% for the first, 78.2% for the second.

Going from “sense rArUrCrArCrArUrArUrCrCrUrArCrUrArCrUrGdTdT / antisense rCrArGrUrArGrUrArGrGrArUrArUrGrUrGrArUdAdG” to “sense rArUrCrArGrUrCrCrCrUrUrArUrCrCrGrGrUrAdTdT / antisense rUrArCrCrGrGrArUrArArGrGrGrArCrUrGrArUdAdT”, the normalised inhibition (eCFP-eYFP dual reporter) rises from 69.2% to 99.1%.

Compared with “sense rArUrCrCrArArCrArCrArArArGrArGrArArArUdTdT / antisense rArUrUrUrCrUrCrUrUrUrGrUrGrUrUrGrGrArUdGdA”, “sense rArUrCrUrCrArUrGrGrCrUrCrUrGrGrGrGrCrUdTdT / antisense rArGrCrCrCrCrArGrArGrCrCrArUrGrArGrArUdGdA” is lower in normalised inhibition (eCFP-eYFP dual reporter): 69.1% for the first, 53.8% for the second.

Compared with “sense rArUrGrGrArArArGrArCrArGrCrArArArGrArUdTdT / antisense rArUrCrUrUrUrGrCrUrGrUrCrUrUrUrCrCrArUdCdC”, “sense rArUrUrGrCrArGrUrUrCrCrUrGrArGrCrUrGrGdTdT / antisense rCrCrArGrCrUrCrArGrGrArArCrUrGrCrArArUdTdT” is lower in normalised inhibition (eCFP-eYFP dual reporter): 69.9% for the first, 61.6% for the second.

Compared with “sense rCrArGrCrGrArCrUrGrArArGrGrArGrGrArArUdTdT / antisense rArUrUrCrCrUrCrCrUrUrCrArGrUrCrGrCrUrGdCdA”, “sense rCrArGrUrCrCrCrUrUrArUrCrCrGrGrUrArUrGdTdT / antisense rCrArUrArCrCrGrGrArUrArArGrGrGrArCrUrGdAdT” is lower in normalised inhibition (eCFP-eYFP dual reporter): 100% for the first, 78.8% for the second.

Compared with “sense rCrCrGrGrArCrCrCrCrGrArGrArUrCrGrUrGrAdTdT / antisense rUrCrArCrGrArUrCrUrCrGrGrGrGrUrCrCrGrGdCdG”, “sense rCrCrGrGrUrArUrGrUrGrGrArGrArArCrArArCdTdT / antisense rGrUrUrGrUrUrCrUrCrCrArCrArUrArCrCrGrGdAdT” is higher in normalised inhibition (eCFP-eYFP dual reporter): 56.6% for the first, 72.3% for the second.

Compared with “sense rCrCrUrGrArGrCrUrGrGrArUrGrGrArArArGrAdTdT / antisense rUrCrUrUrUrCrCrArUrCrCrArGrCrUrCrArGrGdAdA”, “sense rCrGrArGrUrUrUrGrArCrArUrUrCrCrUrArUrCdTdT / antisense rGrArUrArGrGrArArUrGrUrCrArArArCrUrCrGdAdT” is lower in normalised inhibition (eCFP-eYFP dual reporter): 120% for the first, 95.7% for the second.

First: sense rCrGrUrCrArUrCrCrArArCrArCrArArArGrArGdTdT / antisense rCrUrCrUrUrUrGrUrGrUrUrGrGrArUrGrArCrGdCdC
Second: sense rCrUrGrArCrGrGrArUrCrArUrUrUrCrArArArCdTdT / antisense rGrUrUrUrGrArArArUrGrArUrCrCrGrUrCrArGdGdC
The normalised inhibition (eCFP-eYFP dual reporter) of the first is higher: 86.3% for the first, 65.7% for the second.

Going from “sense rCrUrGrArUrCrUrGrArUrUrCrArGrArArGrGrGdTdT / antisense rCrCrCrUrUrCrUrGrArArUrCrArGrArUrCrArGdGdG” to “sense rCrUrGrGrArGrUrCrCrArArCrArArGrGrArArGdTdT / antisense rCrUrUrCrCrUrUrGrUrUrGrGrArCrUrCrCrArGdTdC”, the normalised inhibition (eCFP-eYFP dual reporter) falls from 73.2% to 66.3%.

First: sense rCrUrGrGrGrUrCrCrArUrGrGrCrUrGrGrCrArGdTdT / antisense rCrUrGrCrCrArGrCrCrArUrGrGrArCrCrCrArGdCdC
Second: sense rCrUrUrArUrCrCrGrGrUrArUrGrUrGrGrArGrAdTdT / antisense rUrCrUrCrCrArCrArUrArCrCrGrGrArUrArArGdGdG
The normalised inhibition (eCFP-eYFP dual reporter) of the first is lower: 60.5% for the first, 78.4% for the second.

First: sense rGrArArArUrArUrGrArGrUrUrUrGrArCrArUrCdTdT / antisense rGrArUrGrUrCrArArArCrUrCrArUrArUrUrUrCdAdG
Second: sense rGrArArCrUrCrGrGrUrGrGrUrUrUrGrGrArArAdTdT / antisense rUrUrUrCrCrArArArCrCrArCrCrGrArGrUrUrCdCdT
The normalised inhibition (eCFP-eYFP dual reporter) of the first is lower: 66.9% for the first, 97.7% for the second.

Compared with “sense rGrArArUrGrUrGrCrCrCrArArArUrUrUrGrGrAdTdT / antisense rUrCrCrArArArUrUrUrGrGrGrCrArCrArUrUrCdCdT”, “sense rGrArCrArGrCrArArArGrArUrGrUrArCrArGrGdTdT / antisense rCrCrUrGrUrArCrArUrCrUrUrUrGrCrUrGrUrCdTdT” is lower in normalised inhibition (eCFP-eYFP dual reporter): 67.9% for the first, 50.1% for the second.

Compared with “sense rGrArCrGrGrArUrCrArUrUrUrCrArArArCrCrUdTdT / antisense rArGrGrUrUrUrGrArArArUrGrArUrCrCrGrUrCdAdG”, “sense rGrArUrCrArUrUrUrCrArArArCrCrUrUrUrGrUdTdT / antisense rArCrArArArGrGrUrUrUrGrArArArUrGrArUrCdCdG” is lower in normalised inhibition (eCFP-eYFP dual reporter): 123% for the first, 98.8% for the second.

First: sense rGrCrArArArGrArUrGrUrArCrArGrGrGrGrUrGdTdT / antisense rCrArCrCrCrCrUrGrUrArCrArUrCrUrUrUrGrCdTdG
Second: sense rGrCrArGrUrUrCrCrUrGrArGrCrUrGrGrArUrGdTdT / antisense rCrArUrCrCrArGrCrUrCrArGrGrArArCrUrGrCdAdA
The normalised inhibition (eCFP-eYFP dual reporter) of the first is higher: 108% for the first, 80.1% for the second.

In the case of “sense rGrCrCrArGrGrArArUrGrUrGrCrCrCrArArArUdTdT / antisense rArUrUrUrGrGrGrCrArCrArUrUrCrCrUrGrGrCdCdC”, the normalised inhibition (eCFP-eYFP dual reporter) is reported as 77.2%.
